In ChEMBL document CHEMBL1155913, “Novel anticancer agents, kayeassamins A and B from the flower of Kayea assamica of Myanmar” (2008):
Active and inactive are the calls of the source. The calls are words filed in the database; no cut-off is given here.

What was measured:
[1] = tested on: PANC-1; assay: Inhibition of human PANC1 cells migration to pipette tip-induced wounds under nutrient-rich medium at 1 uM after 72 hrs by phase-contrast microscopy; assay type: functional, cell-based
[2] = tested on: PANC-1; assay: Cytotoxicity against human PANC1 cells under nutrient-deprived medium after 24 hrs by serial dilution method; assay type: functional
[3] = tested on: PANC-1; assay: Induction of apoptosis in human PANC1 cells under nutrient-deprived medium assessed as morphological changes at 1 uM after 24 hrs by phase-contrast microscopy; assay type: functional, cell-based
[4] = tested on: PANC-1; assay: Selectivity index, ratio of PC100 for human PANC1 cells under nutrient-rich to nutrient-deprived medium; assay type: functional

Structure (SMILES)	Activity [1]	Cytotoxicity [2] [µM]	Activity [3]	Ratio [4]
CCCC(=O)c1c(O)c(C/C=C(\C)CCC=C(C)C)c2oc(=O)cc([C@@H](O)CC)c2c1O [KAYEASSAMIN B]	inactive	1	Active	256
CCCC(=O)c1c(O)c(C/C=C(\C)CCC=C(C)C)c(O)c2c([C@@H](O)CC)cc(=O)oc12 [KAYEASSAMIN A]	inactive	1	Active	256
COc1cc(C[C@H]2C(=O)OC[C@@H]2Cc2ccc(OC)c(OC)c2)ccc1O [ARCTIGENIN]	–	1	–	–
